According to patent US5173509A (The United States of America as represented by the …, priority 1990, dated 1992):
“Also recorded” adds a separate entry of the source.

Key:
[1] = tested on: calvaria; test: Bone resorption assay (calcium released into media by mouse calvaria); assay type: cell-based, mice (In:GP(s)), three to six day old; settings: for calcium in the media: three days
Description: Glutamine was obtained from Biofluids (Catalog No. 300). […] Heparin was obtained from Organon (1000 units/cc). […] Above factors were stored at -20 degrees centigrade.
Three to six day old mice (In:GP(s)) were obtained from the small animal section of the Veterinarian Resources Branch of the National Institutes of Health. Calvaria were harvested and washed in 500 cc of Hank's Balanced Salt solution without calcium or magnesium (Catalog No. 320, Biofluids) with a stirring bar for one to one and a half hours. The calvaria were placed in 2cc of study media in 16 × 125 mm STYRENE tissue culture tubes (Catalog No. R605, Elkay Products, Inc.). Study media was made by mixing equal volumes of Media A and Media B and then adding the appropriate growth factors. […] The calcium in the media was determined after three days with an ABBOTT Bichromatic Analyzer 100.

[2] = Plasma half life / plasma level; assay type: in vivo, human; settings: after attainment of an effective plasma level
Description: The term "plasma" as used herein refers to whole blood plasma having cell bodies spun out by centrifugation, or similar method. […] Chromatog., Vol. 8, pp. 1685-1696 (1985), hereby incorporated by reference.

[3] = tested on: patient having symptomatic hypercalcemia; settings: cited from earlier work
[4] = cited from earlier work
[5] = when used at the levels herein taught; cited from earlier work
[6] = tested on: PDGF cell surface receptors; settings: cited from earlier work
[7] = tested on: TGF-B cell surface receptors; settings: cited from earlier work
[8] = tested on: EGF cell surface receptors; settings: cited from earlier work

Cc1ccc(C(=O)Nc2ccc(S(=O)(=O)O)c3cc(S(=O)(=O)O)cc(S(=O)(=O)O)c23)cc1NC(=O)c1cccc(NC(=O)Nc2cccc(C(=O)Nc3cc(C(=O)Nc4ccc(S(=O)(=O)O)c5cc(S(=O)(=O)O)cc(S(=O)(=O)O)c45)ccc3C)c2)c1 [suramin, 8,8'-[carbonylbis[imino-3,1-phenylenecarbonylimino(4-methyl-3,1-phenylene)carbonylimino]]bis-1,3,5-naphthalenetrisulfonic acid]
calcium in the media ([1]; Example 1, FIG. 1A, calvaria plus suramin 200 mcg/ml, mean +/- SEM, n=6, media with calvaria 9.88 +/- 1.49, P=0.0002): 7.05 ± 0.32 mg/dL | calcium in the media ([1]; Example 2, FIG. 1B, calvaria plus PTH (200 ng/ml) plus suramin 200 mcg/ml, n=6, vs. calvaria plus PTH P=0.0045): 8.33 ± 0.57 mg/dL | calcium in the media ([1]; Example 3, FIG. 1C, calvaria plus PTH-rp (200 ng/ml) plus suramin 200 mcg/ml, n=10, vs. calvaria plus PTH-rp P=0.0001): 7.26 ± 0.18 mg/dL | inhibition of bone resorption (conclusion in words) ([1]; based on Examples 1-3): possesses properties which allow it to inhibit bone resorption | time for which effective plasma levels are maintained without readministering [2]: 6-8 weeks | duration of normocalcemia after suramin treatment ([3]; one patient, cancer metastatic to bone): remained normocalcemic for three months; also recorded: normalized for three months | normalization of hypercalcemia ([3]; suramin 350 mg/m^2 /d continuous infusion about two weeks, calcium levels before 14 to 15 mg/dL): became normocalcemic within about two weeks | plasma suramin level ([4]; 350 mg/m^2 /d continuous infusion for about two weeks, 20160 min): 250 to 300 µg/mL | half life in plasma (in words) ([4]; human plasma): long plasma half life | toxicity (in words) [5]: relatively low toxicity | blocking of PDGF to cell surface receptors [6]: has been shown to block | blocking of TGF-B to cell surface receptors [7]: has been shown to block | blocking of EGF to cell surface receptors [8]: has been shown to block

Parathyroid Hormone - related protein (PTH-rp): Human PTH-related protein (PTH-RP) (1-34) (Catalog No. 6151; Peninsular Laboratories Incorporated)
calcium in the media ([1]; Example 3, FIG. 1C, calvaria plus PTH-rp 200 ng/ml, without suramin, n=10, media with calvaria 9.1 +/- 0.46, P=0.0015): 11.3 ± 0.34 mg/dL

calcitonin
response of hypercalcemia to calcitonin ([3]; same patient, before suramin): becoming refractory to treatment with calcitonin
